Here are results for 15 compounds from US20050112573A1, “Method of detecting toxic substance” (priority 2001, published 2005).

Where two headings read alike, the source gives them in different places.

The subject of assay [1] is promoter of yeast gene YKL071w. Format: cell-based, Saccharomyces cerevisiae W303. An excerpt: (§1) The inventors of the present application understood that the induction of certain yeast genes by toxic substances is caused by the activation of the promoters of the genes by the toxic substances. Thus, the inventors prepared a vector that comprised a polynucleotide sequence comprising the promoter of the yeast gene, which sequence is operably linked to a polynucleotide encoding a marker protein; and transformed yeast cells with the vector. […] The working examples hereinafter illustrate the preparation of such vectors, transformation of yeast cells by use of said vectors, and the detection of toxic substances by use of the transformed cells.
(§2) Promoter assay is a method for determining variations of the level of intracellular genes without destroying cells on the basis of the level of expressed marker genes instead of the expressed mRNA. The gene selected to detect a chemical substance is expressed in the absence of chemical substances, and thus a marker protein also occurs in the absence of chemical substances. In the method according to the present invention, the behavior of yeast genes on the addition of test materials is determined on the basis of the level of expressed marker protein so that the presence or the absence, and the kind of toxic chemical substances are predicted. Thus, it is desired that the production of marker proteins is lower in the absence of chemical substances, and the production of marker proteins is higher in the presence of chemical substances.
(§3) Type YEp shuttle vector pYES2 (pYES2, Cat no: V825-20, Invirtogen Corporation, USA), which can be replicated both in E. coli. and yeast was used as vector (R. W. Old, S. B. Primrose Principles of Gene Manipulation 5th Ed., BAIFUKAN CO., LTD, pp138-165, pp.234-263, 2000). The portion of vector pQBI 63 (Cat no.54-0082, Wako Pure Chemical Industries, Ltd.) corresponding to a marker protein GFP was used as the polynucleotide encoding GFP (SEQ ID No: 6). First, the GFP polynucleotide was inserted into the multiple cloning sites of pYES2 to give a vector. Thereafter, the GAL1 promoter of pYES2 was replaced with the polynucleotide comprising the promoter sequence of the intended yeast gene YKL071w (SEQ ID No: 1) to give an intended plasmid vector. Suitable restriction enzymes were selected, and the insertion of the polynucleotide comprising GFP and the promoter sequence was conducted.
(§4) Next, the yeast Saccharomyces cerevisiae W303 was transformed with the resultant plasmid vector according to the following procedures: • 1) Incubating the yeast Saccharomyces cerevisiae W303 in 200 ml of SD medium under shaking until OD 660 reaches 0.5; • 2) Suspending the collected cells in 5 ml of TE-buffer; • 3) Adding 250 μL of 2.5M lithium acetate; • 4) Dispending each 300 μl, adding 10 μl of above plasmid vector thereto, then incubating the suspensions at 30° C. for 30 minutes; • 5) Adding 700 μl of 50% PEG4000, and incubating the mixture under shaking at 30° C. for 60 minutes; • 6) Giving heat shock (42° C., 5 minutes), and then immediately cooling the mixture; • 7) Washing the mixture twice with 1M sorbitol; and • 8) Seeding it on agar plates made of minimum essential medium.
The cells of SC-YKL071W-pQBI as prepared in Example 2 were contacted to one of the following compounds. The yeast cells SC-YKL071W-pQBI were incubated at 25° C. in SD medium (Yeast nitrogen base without amino acids (Difco 0919-15)+glucose+amino acids (adenine, histidine, tryptophan)). One of toxic chemical substances as shown below was added to the cells at logarithmic growth phase, and then the cells were further incubated for two hours.

Assay [2] concerns promoter of yeast gene YLR303w. In kind it is cell-based, Saccharomyces cerevisiae W303. The settings on record: for expression of GFP: SC-YCR303W-pQBI cells (so in the source), summary of Table 14.
Text: as §1, §2
as §3, with “YLR303w” for “YKL071w”, “5)” for “1)”
as §4
The cells of SC-YCR303W-pQBI as prepared in Example 6 were contacted to one of the following compounds. The yeast cells SC-YCR303W-pQBI were incubated at 25° C. in SD medium (Yeast nitrogen base without amino acids (Difco 0919-15)+glucose+amino acids (adenine, histidine, tryptophan)). One of toxic chemical substances as shown below was added to the cells at logarithmic growth phase, and then the cells were further incubated for two hours.

Where [3] appears, read: SC-YKL071W-pQBI cells, 25° C., two hours, each substance at the concentration given.
Setting [4] is: cells SC-YCR303W-pQBI (so in the source), 2 hours incubation with the substance at the concentration printed in its row (column Concentrations), GFP fluorescence vs control without chemical.

For the compound CdCl2 [(2)], the Fluorescens result in assay [1] (setting [3]) was “− (the number of the cells having a higher fluorescence than the control was under 1%)”. Further, the “expression of GFP” value in assay [2] was “induced the expression of GFP”. In addition, in assay [2] (setting [4]), the Fluorescence entry is recorded as “++ (2% or more)”.

Regarding HgCl2 [(3)], the Fluorescens entry in assay [1] (setting [3]) is on record as “− (the number of the cells having a higher fluorescence than the control was under 1%)”. In addition, the “expression of GFP” value in assay [2] is given as “induced the expression of GFP”. Also, the Fluorescence result in assay [2] (setting [4]) is recorded as “++ (2% or more)”.

On to `CN(C)C(=S)SSC(=S)N(C)C` [(10), Tetramethylthiuram disulfide], for which the “expression of GFP” value in assay [1] (SC-YKL071W-pQBI cells, summary of Table 10) is recorded as “induced the expression of GFP”.

In the case of “manganese ethylenebis(dithiocarbamate) [(8)]”, the Fluorescens entry in assay [1] (setting [3]) is listed as “− (the number of the cells having a higher fluorescence than the control was under 1%)”. Also, the “expression of GFP” value in assay [2] is “induced the expression of GFP”.

Regarding γ-hexachlorocyclohexane [(7)], the Fluorescens result in assay [1] (setting [3]) is reported as “− (the number of the cells having a higher fluorescence than the control was under 1%)”. The Fluorescence entry in assay [2] (setting [4]) is “− (the number of the cells having a higher fluorescence than the control was under 1%)”.

On to `CC(=O)O.Cc1nc(N)cc2[nH]c3ccccc3c12` [Trp-P-2 (acetate)], for which the Fluorescens entry in assay [1] was “− (key: −: the number of the cells having a higher fluorescence than the control was under 1%; +: between 1% and 2%; ++: 2% or more)”. Besides, the Fluorescence entry in assay [2] was “− (key: −: the number of the cells having a higher fluorescence than the control was under 1%; +: between 1% and 2%; ++: 2% or more)”.

For `CCN(CC)C(=O)SCc1ccc(Cl)cc1` [S-4-Chlorobenzyl-N,N-diethylthiocarbamate], in assay [1] (setting [3]), the Fluorescens entry was “− (the number of the cells having a higher fluorescence than the control was under 1%)”. Moreover, in assay [2] (setting [4]), the Fluorescence result is given as “− (the number of the cells having a higher fluorescence than the control was under 1%)”.

For `O=S(=O)([O-])[O-].[Cu+2]` [copper sulfate (II)], the Fluorescens result in assay [1] was “− (key: −: the number of the cells having a higher fluorescence than the control was under 1%; +: between 1% and 2%; ++: 2% or more)”. Besides, the Fluorescence entry in assay [2] is “− (key: −: the number of the cells having a higher fluorescence than the control was under 1%; +: between 1% and 2%; ++: 2% or more)”.

Regarding `[Cl][Ni][Cl]` [nickel (II) chloride], the Fluorescens result in assay [1] is “− (key: −: the number of the cells having a higher fluorescence than the control was under 1%; +: between 1% and 2%; ++: 2% or more)”. Also, the Fluorescence result in assay [2] was “− (key: −: the number of the cells having a higher fluorescence than the control was under 1%; +: between 1% and 2%; ++: 2% or more)”.

Turning to `[K+].[K+].[O]=[Cr](=[O])([O-])[O][Cr](=[O])(=[O])[O-]` [potassium bichromate], the Fluorescens entry in assay [1] (setting [3]) is given as “− (the number of the cells having a higher fluorescence than the control was under 1%)”. In addition, in assay [2] (setting [4]), the Fluorescence result is given as “− (the number of the cells having a higher fluorescence than the control was under 1%)”.

Na2As [(1)]: the Fluorescens entry in assay [1] (setting [3]) is “− (the number of the cells having a higher fluorescence than the control was under 1%)”. In addition, the “expression of GFP” value in assay [2] is given as “induced the expression of GFP”. Also, the Fluorescence result in assay [2] (setting [4]) is “++ (2% or more)”.

With `[Cl][Sn]([c]1ccccc1)([c]1ccccc1)[c]1ccccc1` [triphenyltin chloride], the Fluorescens entry in assay [1] (setting [3]) is on record as “− (the number of the cells having a higher fluorescence than the control was under 1%)”. Moreover, the Fluorescence entry in assay [2] (setting [4]) is on record as “− (the number of the cells having a higher fluorescence than the control was under 1%)”.

As to `[CH3][Hg][Cl]` [methylmercury chloride], the Fluorescens result in assay [1] (setting [3]) was “− (the number of the cells having a higher fluorescence than the control was under 1%)”. Moreover, the Fluorescence result in assay [2] (setting [4]) is on record as “− (the number of the cells having a higher fluorescence than the control was under 1%)”.

For the compound `CCOC(=O)CC(SP(=S)(OC)OC)C(=O)OCC` (centres unmarked) [malathon], in assay [1] (setting [3]), the Fluorescens result was “− (the number of the cells having a higher fluorescence than the control was under 1%)”. Further, in assay [2] (setting [4]), the Fluorescence result is “− (the number of the cells having a higher fluorescence than the control was under 1%)”.

Consider `CCCCC(CC)COC(=O)c1ccccc1C(=O)OCC(CC)CCCC` (centres unmarked), for which, in assay [1] (setting [3]), the Fluorescens entry is reported as “− (the number of the cells having a higher fluorescence than the control was under 1%)”. The Fluorescence result in assay [2] (setting [4]) was “− (the number of the cells having a higher fluorescence than the control was under 1%)”.
